{"source": "patent US11285119B2", "about": "“Anti-inflammatory composition” (NEOPHARM CO., LTD., priority 2016, dated 2022)", "key": {"IL-17A": {"test_system": "IL-17A", "experiment": "Anti-inflammatory effect: IL-17A expression in atopic dermatitis-induced 3D culture tissue (immunohistochemistry)", "format": "cell-based", "conditions": "compared with the skin model in which atopic dermatitis was induced, 72 hours, quantified immunohistochemistry (FIG. 2), read-out: IL-17A inhibitory effect", "description": "(§1) In order to measure the anti-inflammatory efficacy, atopic dermatitis was induced with respect to IL-8 and IL-17A, which are inflammation-inducing cytokines, and expression amounts thereof were measured.\n(§2) In order to induce atopic dermatitis, the 3D culture tissue (EpiDerm Full Thickness 400, sold by MatTek) media containing Poly (I:C), TNF-α, IL-4 and IL-13 were used, and treated for 72 hours with N-(2-hydroxyethyl)octanamide at a final concentration of 100 μM. Then, the 3D culture tissue was immobilized on formalin to make a paraffin block, and the degree of expression of inflammation-inducing cytokine was evaluated.\n(§3) In FIG. 1, AD represents a skin model in which atopic dermatitis was induced, and the anti-inflammatory effect was evaluated based on the expression amounts of IL-8 and IL-17A.\n(§4) Further, the inhibitory effect of each cytokine was quantified based on the results obtained through the immunohistochemistry obtained in FIG. 1, and shown in FIG. 2."}, "IL-8": {"test_system": "IL-8", "experiment": "Anti-inflammatory effect: IL-8 expression in atopic dermatitis-induced 3D culture tissue (immunohistochemistry)", "format": "cell-based", "conditions": "compared with the skin model in which atopic dermatitis was induced, 72 hours, quantified immunohistochemistry (FIG. 2), read-out: IL-8 inhibitory effect", "description": "as §1, §2, §3, §4"}, "[1]": {"test_system": "human fibroblast (ATCC 2076)", "experiment": "Confirmation of cytotoxicity (MTT cell viability)", "format": "cell-based", "conditions": "for Cell viability (%): human fibroblast, MTT", "description": "The cell viability for human fibroblast (ATCC 2076) was measured using the anti-inflammatory composition prepared in the following Examples.\nThe human fibroblast (ATCC 2076) with a concentration of 5×10^4 cells/ml was inoculated into a 24-well culture plate of Iscove's Modified Dulbecco's Medium (IMDM, GIBCO) containing 10% bovine serum. […] Then, the supernatant was removed, the cells were washed with 200 μl of 5% phosphate buffered saline (PBS), 1.0 ml of MTT solution was added to each well, and after 4 hours, and the MTT was removed. Next, 1.0 ml of DMSO was added to each well, and incubation was performed overnight at 37° C. The absorbance at 570 nm was measured to determine the cell viability using Equation 1 below, and results thereof are shown in Table 1 below. Here, as a negative control group, a test group in which the active ingredient was not used was adopted. Cell viability (%)=(A570λvalue/B570λvalue)×100 [Equation 1]\nA: Absorbance value at 570 nm of Example\nB: Absorbance value at 570 nm of negative control group"}, "atopic dermatitis": {"test_system": "atopic dermatitis", "experiment": "Atopic dermatitis improvement effect (EASI score) in pediatric patients", "format": "in vivo, human", "conditions": "30 pediatric patients with atopic dermatitis, twice a day for 4 weeks", "description": "In order to measure atopic dermatitis improvement effect, the anti-inflammatory compositions were prepared according to the following Examples. Here, the atopic dermatitis improvement effect was measured using an eczema area severity index (EASI) score. 30 pediatric patients with atopic dermatitis were treated twice a day for 4 weeks, and then effects on atopic symptoms were measured."}}, "data": [{"smiles": "CCCCC(CC)C(=O)NC(CO)CO", "note": "(stereo not shown) [Example 1, N-(1,3-dihydroxypropan-2-yl)-2-ethylhexanamide]", "values": [{"measurement": "inhibition at 100 µM", "setting": "IL-17A", "result": "≥ 58.9", "unit": "%"}, {"measurement": "inhibition at 100 µM", "setting": "IL-8", "result": "≥ 48.5", "unit": "%"}, {"measurement": "Cytotoxicity", "setting": "[1]; in the concentration range of the evaluation method", "result": "no cytotoxicity"}, {"measurement": "Cell viability (%)", "setting": "[1]; used amount 0.00064 μM", "result": 110, "unit": "%"}, {"measurement": "Cell viability (%)", "setting": "[1]; used amount 0.0032 μM", "result": 106, "unit": "%"}, {"measurement": "Cell viability (%)", "setting": "[1]; used amount 0.016 μM", "result": 99, "unit": "%"}, {"measurement": "Cell viability (%)", "setting": "[1]; used amount 0.08 μM", "result": 100, "unit": "%"}, {"measurement": "Cell viability (%)", "setting": "[1]; used amount 0.4 μM", "result": 98, "unit": "%"}, {"measurement": "Cell viability (%)", "setting": "[1]; used amount 2 μM", "result": 101, "unit": "%"}, {"measurement": "Cell viability (%)", "setting": "[1]; used amount 10 μM", "result": 101, "unit": "%"}, {"measurement": "Cell viability (%)", "setting": "[1]; used amount 50 μM", "result": 101, "unit": "%"}, {"measurement": "Cell viability (%)", "setting": "[1]; used amount 250 μM", "result": 108, "unit": "%"}, {"measurement": "Atopic dermatitis improvement effect (EASI score)", "setting": "atopic dermatitis", "result": "significant numerical decrease"}]}]}
